Results on 21 molecules are retold here after patent US20160207930A1 (LEO PHARMA A/S, priority 2013, published 2016).

The target in one data set is T1, NK1 Receptor (Homo sapiens, UniProt P25103).
T1 construct: Measurement of NK1 Receptor Mediated Intracellular [Ca^2+]; Mobilization in U251 MG Cells Using FLIPR; endogenous in cells; host or cells: U251 MG cells
Description: NK1 receptor mediated intracellular [Ca2+] mobilization in U251 MG cells using FLIPR. The data set is classed as cell-based. The following applies: antagonism of Substance P (EC80), Fluo-4, read-out: NK1R mediated intracellular [Ca^2+] mobilization IC 50. The method in brief: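 Fluo-4-loaded U251 MG cells preincubated with compound (0.5% DMSO final), checked 5 min for agonism, then 10 min at 37 °C before Substance P at EC80. Peak fluorescence change on FLIPR, normalized to 100 nM Aprepitant maximal response; IC50 by four-parameter logistic fit, reported as pIC50.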

Data set [1] in a line: Hepatic intrinsic clearance following incubation in human liver microsomes. Format: in vitro ADME. Particulars: 0.5 μM test compound, NADPH, 0-30 min, scaled to g liver. The method in brief:
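Compound incubated at 37° C with microsomes diluted to 0.55 mg/mL protein in 50 mM potassium phosphate pH 7.4 plus NADPH regenerating system; sampled 0–30 min and analysed by LC-MS/MS. Clint from ln(% parent remaining) slope, scaled to mL/min/g liver; Eh derived assuming 25.7 g/kg liver, 20.7 mL/min/kg blood flow.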

T1 sequence (P25103 whole entry): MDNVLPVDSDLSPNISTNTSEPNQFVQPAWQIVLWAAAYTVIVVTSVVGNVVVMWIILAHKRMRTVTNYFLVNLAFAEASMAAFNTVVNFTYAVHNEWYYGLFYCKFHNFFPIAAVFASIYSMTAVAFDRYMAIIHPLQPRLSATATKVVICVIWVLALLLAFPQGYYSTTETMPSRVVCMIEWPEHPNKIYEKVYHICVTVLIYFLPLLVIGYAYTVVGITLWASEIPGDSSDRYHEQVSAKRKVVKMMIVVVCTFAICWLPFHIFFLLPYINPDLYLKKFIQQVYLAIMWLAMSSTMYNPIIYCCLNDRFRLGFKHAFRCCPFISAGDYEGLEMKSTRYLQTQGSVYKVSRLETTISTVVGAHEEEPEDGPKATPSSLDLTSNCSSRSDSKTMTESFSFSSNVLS

Turning to `Cc1cccnc1[C@@H]1[C@@H]2CCC(=O)N2CCN1C(=O)N(C)[C@H](C)c1cc(C(F)(F)F)cc(C(F)(F)F)c1` [Compound 44, (1S,8aS)—N—((R)-1-(3,5-bis(trifluoromethyl)phenyl)ethyl)-N-methyl-1-(3-methylpyridin-2-yl)-6-oxo-hexahydropyrrolo[1,2-a]pyrazine-2(1H)-carboxamide], the IC50 on NK1 Receptor came to 100000 pM. The “Human in vitro Clint” value in data set [1] is over 200 mL/min/g.

Turning to `COc1ccccc1[C@H]1[C@@H]2CC(CCO)(CCO)C(=O)N2CCN1C(=O)N(C)[C@H](C)c1cc(C(F)(F)F)cc(C(F)(F)F)c1` [Compound 36, (1S,8aS)—N—((R)-1-(3,5-bis(trifluoromethyl)phenyl)ethyl)-7,7-bis(2-hydroxyethyl)-1-(2-methoxyphenyl)-N-methyl-6-oxo-hexahydropyrrolo[1,2-a]pyrazine-2(1H)-carboxamide], the IC50 at NK1 Receptor turned out to be 811 pM. In data set [1], the “Human in vitro Clint” value was 147 mL/min/g.

`CCc1cc([C@@H](C)N(C)C(=O)N2CCN3C(=O)C(CCO)(CCO)C[C@H]3[C@@H]2c2ccc(F)cc2C)cc(C(F)(F)F)c1` [Compound 24, (1S,8aS)—N—((R)-1-(3-ethyl-5-(trifluoromethyl)phenyl)ethyl)-1-(4-fluoro-2-methylphenyl)-7,7-bis(2-hydroxyethyl)-N-methyl-6-oxohexahydropyrrolo[1,2-a]pyrazine-2(1H)-carboxamide]: the IC50 at NK1 Receptor came to 80 pM. Moreover, the “Human in vitro Clint” value in data set [1] was over 200 mL/min/g.

For the molecule `CCc1cc([C@@H](C)N(C)C(=O)N2CCN3C(=O)CC[C@H]3[C@@H]2c2cccc3c2CCC3)cc(C(F)(F)F)c1` [Compound 80, (1S,8aS)-1-(2,3-dihydro-1H-inden-4-yl)-N—((R)-1-(3-ethyl-5-(trifluoromethyl)phenyl)ethyl)-N-methyl-6-oxohexahydropyrrolo[1,2-a]pyrazine-2(1H)-carboxamide], the IC50 on NK1 Receptor came to 790 pM. Also, the “Human in vitro Clint” value in data set [1] was over 200 mL/min/g.

As to `Cc1sccc1[C@H]1[C@@H]2CCC(=O)N2CCN1C(=O)N(C)[C@H](C)c1cc(C(F)(F)F)cc(C(F)(F)F)c1` [Compound 57, (1S,8aS)—N—((R)-1-(3,5-bis(trifluoromethyl)phenyl)ethyl)-N-methyl-1-(2-methylthiophen-3-yl)-6-oxohexahydropyrrolo[1,2-a]pyrazine-2(1H)-carboxamide], the IC50 at NK1 Receptor came to 152 pM. Also, the “Human in vitro Clint” value in data set [1] was over 200 mL/min/g.

As to `Cc1cc(OCc2ccccc2)ccc1[C@H]1[C@@H]2CCC(=O)N2CCN1C(=O)N(C)[C@H](C)c1cc(C(F)(F)F)cc(C(F)(F)F)c1` [Compound 26, (1S,8aS)-1-(4-(benzyloxy)-2-methylphenyl)-N—((R)-1-(3,5-bis(trifluoromethyl)phenyl)ethyl)-N-methyl-6-oxohexahydropyrrolo[1,2-a]pyrazine-2(1H)-carboxamide], the IC50 on NK1 Receptor was 7360 pM. In data set [1], the “Human in vitro Clint” value was over 200 mL/min/g.

For the molecule `Cc1cccc(F)c1[C@H]1[C@@H]2CCC(=O)N2CCN1C(=O)N(C)[C@H](C)c1cc(C(F)(F)F)cc(C(F)(F)F)c1` [Compound 82, (1S,8aS)—N—((R)-1-(3,5-bis(trifluoromethyl)phenyl)ethyl)-1-(2-fluoro-6-methylphenyl)-N-methyl-6-oxohexahydropyrrolo[1,2-a]pyrazine-2(1H)-carboxamide], the IC50 at NK1 Receptor was found to be 130 pM. For the same molecule, the “Human in vitro Clint” value in data set [1] is over 200 mL/min/g.

Consider `Cc1cnccc1[C@H]1[C@@H]2CCC(=O)N2CCN1C(=O)N(C)[C@H](C)c1cc(C(F)(F)F)cc(C(F)(F)F)c1` [Compound 46, (1S,8aS)—N—((R)-1-(3,5-bis(trifluoromethyl)phenyl)ethyl)-N-methyl-1-(3-methylpyridin-4-yl)-6-oxohexahydropyrrolo[1,2-a]pyrazine-2(1H)-carboxamide], for which the IC50 at NK1 Receptor is 167 pM. Also, the “Human in vitro Clint” value in data set [1] is under 10 mL/min/g.

As for `Cc1cscc1[C@H]1[C@@H]2CCC(=O)N2CCN1C(=O)N(C)[C@H](C)c1cc(C(F)(F)F)cc(C(F)(F)F)c1` [Compound 48], the IC50 at NK1 Receptor was determined as 249 pM. Besides, the “Human in vitro Clint” value in data set [1] was over 200 mL/min/g.

Take `CCc1cc([C@@H](C)N(C)C(=O)N2CCN3C(=O)CC[C@H]3[C@@H]2c2ccccc2CC)cc(C(F)(F)F)c1` (single isomer, unassigned) [Compound 70]: the IC50 on NK1 Receptor amounted to 940 pM. Moreover, the “Human in vitro Clint” value in data set [1] was over 200 mL/min/g.

On to `CC(C)c1cc([C@@H](C)N(C)C(=O)N2CCN3C(=O)CC[C@H]3[C@@H]2c2cccc3c2CCC3)cc(C(F)(F)F)c1` [Compound 81, (1S,8aS)-1-(2,3-dihydro-1H-inden-4-yl)-N—((R)-1-(3-isopropyl-5-(trifluoromethyl)phenyl)ethyl)-N-methyl-6-oxohexahydropyrrolo[1,2-a]pyrazine-2(1H)-carboxamide], for which, on NK1 Receptor, the IC50 was found to be 3500 pM. The “Human in vitro Clint” value in data set [1] is over 200 mL/min/g.

As for `COc1ccc(C2C3CCC(=O)N3CCN2C(=O)N(C)[C@H](C)c2cc(C(F)(F)F)cc(C(F)(F)F)c2)c(C)c1` (single isomer, unassigned) [Compound 18], the IC50 on NK1 Receptor stood at 1150 pM. The “Human in vitro Clint” value in data set [1] is over 200 mL/min/g.

With `Cc1ccc([C@H]2[C@@H]3CC(CCO)(CCO)C(=O)N3CCN2C(=O)N(C)[C@H](C)c2cc(C(C)C)cc(C(F)(F)F)c2)c(C)c1` [Compound 35, (1S,8aS)-1-(2,4-dimethylphenyl)-7,7-bis(2-hydroxyethyl)-N—((R)-1-(3-isopropyl-5-(trifluoromethyl)phenyl)ethyl)-N-methyl-6-oxohexahydropyrrolo[1,2-a]pyrazine-2(1H)-carboxamide], the IC50 at NK1 Receptor was 141 pM. For the same molecule, the “Human in vitro Clint” value in data set [1] is over 200 mL/min/g.

On to `Cc1cc([C@@H](C)N(C)C(=O)N2CCN3C(=O)C(CCO)(CCO)CC3C2c2ccc(F)cc2C)cc(C(F)(F)F)c1` (single isomer, unassigned) [Compound 12], for which the IC50 on NK1 Receptor stood at 622 pM. Also, the “Human in vitro Clint” value in data set [1] is over 200 mL/min/g.

Consider `CCc1ccccc1[C@H]1[C@@H]2CCC(=O)N2CCN1C(=O)N(C)[C@H](C)c1cc(C(F)(F)F)cc(C(F)(F)F)c1` [Compound 68, N—((R)-1-(3,5-bis(trifluoromethyl)phenyl)ethyl)-1-(2-ethylphenyl)-N-methyl-6-oxohexahydropyrrolo[1,2-a]pyrazine-2(1H)-carboxamide], for which the IC50 at NK1 Receptor turned out to be 260 pM. In addition, the “Human in vitro Clint” value in data set [1] is over 200 mL/min/g.

As for `CCc1cc([C@@H](C)N(C)C(=O)N2CCN3C(=O)CC[C@H]3[C@@H]2c2sccc2C)cc(C(F)(F)F)c1` [Compound 51, (1R,8aS)—N—((R)-1-(3-ethyl-5-(trifluoromethyl)phenyl)ethyl)-N-methyl-1-(3-methylthiophen-2-yl)-6-oxohexahydropyrrolo[1,2-a]pyrazine-2(1H)-carboxamide], on NK1 Receptor, the IC50 was determined as 55 pM. For the same molecule, the “Human in vitro Clint” value in data set [1] is over 200 mL/min/g.

On to `CCc1cc([C@@H](C)N(C)C(=O)N2CCN3C(=O)CC[C@H]3[C@@H]2c2cccs2)cc(C(F)(F)F)c1` [Compound 54, (1R,8aS)—N—((R)-1-(3-ethyl-5-(trifluoromethyl)phenyl)ethyl)-N-methyl-6-oxo-1-(thiophen-2-yl)hexahydropyrrolo[1,2-a]pyrazine-2(1H)-carboxamide], for which the IC50 on NK1 Receptor is 514 pM. The “Human in vitro Clint” value in data set [1] was over 200 mL/min/g.

As to `Cc1ccc(C)c([C@H]2[C@@H]3CC(CCO)(CCO)C(=O)N3CCN2C(=O)N(C)[C@H](C)c2cc(C(F)(F)F)cc(C(F)(F)F)c2)c1` [Compound 37, (1S,8aS)—N—((R)-1-(3,5-bis(trifluoromethyl)phenyl)ethyl)-1-(2,5-dimethylphenyl)-7,7-bis(2-hydroxyethyl)-N-methyl-6-oxo-hexahydropyrrolo[1,2-a]pyrazine-2(1H)-carboxamide], the IC50 at NK1 Receptor came to 80 pM. Also, in data set [1], the “Human in vitro Clint” value was 30 mL/min/g.

Take `CCc1cc([C@@H](C)N(C)C(=O)N2CCN3C(=O)C(CCO)(CCO)C[C@H]3[C@@H]2c2ccc(O)cc2C)cc(C(F)(F)F)c1` [Compound 31, (1S,8aS)—N—((R)-1-(3-ethyl-5-(trifluoromethyl)phenyl)ethyl)-1-(4-hydroxy-2-methylphenyl)-7,7-bis(2-hydroxyethyl)-N-methyl-6-oxohexahydropyrrolo[1,2-a]pyrazine-2(1H)-carboxamide]: at NK1 Receptor, the IC50 was 59 pM. Moreover, in data set [1], the “Human in vitro Clint” value is 61 mL/min/g.

On to `Cc1cc(F)ccc1[C@H]1[C@@H]2CC(CCO)(CCO)C(=O)N2CCN1C(=O)N(C)[C@H](C)c1cc(C(C)C)cc(C(F)(F)F)c1` [Compound 25, (1S,8aS)-1-(4-fluoro-2-methylphenyl)-7,7-bis(2-hydroxyethyl)-N—((R)-1-(3-isopropyl-5-(trifluoromethyl)phenyl)ethyl)-N-methyl-6-oxohexahydropyrrolo[1,2-a]pyrazine-2(1H)-carboxamide], for which the IC50 on NK1 Receptor amounted to 80 pM. In data set [1], the “Human in vitro Clint” value worked out at 128 mL/min/g.

Take `Cc1cc(O)ccc1[C@H]1[C@@H]2CC(CCO)(CCO)C(=O)N2CCN1C(=O)N(C)[C@H](C)c1cc(C(F)(F)F)cc(C(F)(F)F)c1` [Compound 30, (1S,8aS)—N—((R)-1-(3,5-bis(trifluoromethyl)phenyl)ethyl)-1-(4-hydroxy-2-methylphenyl)-7,7-bis(2-hydroxyethyl)-N-methyl-6-oxo-hexahydropyrrolo[1,2-a]pyrazine-2(1H)-carboxamide]: the IC50 on NK1 Receptor was determined as 116 pM. Further, in data set [1], the “Human in vitro Clint” value stood at 18 mL/min/g.
